Data as given in patent US7217710B2, “Substituted pyrazolopyrimidines” (SmithKline Beecham Corporation, priority 2001, dated 2007).

Biological target: T1, GST-TIE2 (intracellular domains of human TIE2) (Homo sapiens, UniProt Q02763)
T1 construct: made in house
Assay: TIE-2 Enzyme Assay (TIE2-E2), LANCE method
Assay type: biochemical
Settings: not given
Excerpt: TIE-2 Enzyme Assay (TIE2-E2
The TIE-2 enzyme assay uses the LANCE method (Wallac) and GST-TIE2, baculovirus-expressed recombinant constructs of the intracellular domains of human TIE2 (amino acids 762–1104, GenBank Accession # L06139) tagged by GST). The method measures the ability of the purified enzymes to catalyse the transfer of the γ-phosphate from ATP onto tyrosine residues in a biotinylated synthetic peptide, D1–15 (biotin-C6-LEARLVAYEGWVAGKKKamide). This peptide phosphorylation is detected using the following procedure: for enzyme preactivation, GST-TIE2 is incubated for 2 hours at room temperature with 80 μM ATP, 10 mM MgCl2, 0.1 mg/ml BSA, 0.01% Tween 20 and 1 mM DTT in 100 mM HEPES buffer (pH7.4). 5 nM preactivated GST-TIE2 is incubated for 2 hours at room temperature in 96 well plates with 1 uM D1–15 peptide, 80 uM ATP, 10 mM MgCl2, 0.1 mg/ml BSA, 0.01% Tween 20 and titrated test compound (diluted from a 10 mM stock in DMSO, final DMSO concentration is 2.4%) in 100 mM HEPES (pH7.4). The reaction is stopped by the addition of EDTA (final concentration 45 mM). Streptavidin linked-APC (allophycocyanin, PerkinElmer) and europium-labeled anti-phosphotyrosine antibody (PerkinElmer) are then added at the final concentration of 8 nM and 1 nM, respectively. The APC signal is measured using an Wallac Multilabel 1420 counter. (Wallac Berthold Japan). The percent inhibition of activity is calculated relative to blank control wells. The concentration of test compound that inhibits 50% of activity (IC50) is interpolated using nonlinear regression (Levernberg-Marquardt) and the equation, y=Vmax (1−x/(K+x))+Y2, where “K” is equal to the IC50. The IC50 values are converted to pIC50 values, i.e., −log IC50 in Molar concentration.

T1 sequence (Q02763 762-1104): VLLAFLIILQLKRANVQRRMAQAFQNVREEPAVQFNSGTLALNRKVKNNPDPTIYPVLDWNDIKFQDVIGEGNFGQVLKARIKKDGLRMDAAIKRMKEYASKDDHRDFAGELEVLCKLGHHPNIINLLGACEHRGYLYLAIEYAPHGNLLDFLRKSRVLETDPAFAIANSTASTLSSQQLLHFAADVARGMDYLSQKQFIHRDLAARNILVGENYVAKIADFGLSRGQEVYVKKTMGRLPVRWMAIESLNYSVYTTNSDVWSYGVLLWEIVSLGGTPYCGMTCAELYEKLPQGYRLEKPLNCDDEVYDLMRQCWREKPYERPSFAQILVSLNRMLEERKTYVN

Row | Compound | TIE2 PIC50 TIE2-E2 assay
1 | Cc1cc(-c2nn(C)c3nc(NCCN4CCOCC4)ncc23)ccc1NC(=O)Nc1ccc(Cl)c(C(F)(F)F)c1 [Example 44, 1-(Chloro-trifluoromethyl-phenyl)-3-{methyl-[methyl-(2-morpholin-4-yl-ethylamino)-1H-pyrazolo[3,4-d]pyrimidin-3-yl]-phenyl}-urea] | ++ (++ = PIC50 = 6.00 to less than 7.00)
2 | Cc1cc(-c2nn(C)c3nc(NCCN4CCOCC4)ncc23)ccc1NC(=O)Nc1cc(C(F)(F)F)ccc1F [Example 43, 1-(2-Fluoro-5-trifluoromethyl-phenyl)-3-{methyl-[methyl-(2-morpholin-4-yl-ethylamino)-1H-pyrazolo[3,4-d]pyrimidin-3-yl]-phenyl}-urea] | +++ (+++ = PIC50 = 7.00 to less than 7.40)
3 | Cc1cc(-c2nn(C)c3nc(NCCN4CCOCC4)ncc23)ccc1NC(=O)Nc1cccc(C(F)(F)F)c1 [Example 48, 1-{2-Methyl-4-[methyl-(2-morpholin-4-yl-ethylamino)-1H -pyrazolo[3,4-d]pyrimidin-3-yl]-phenyl}-3-(3-trifluoromethyl-phenyl)-urea] | ++ (++ = PIC50 = 6.00 to less than 7.00)
4 | CN1CCC(N(C)c2ncnc3[nH]nc(-c4ccc(NC(=O)Nc5cc(C(F)(F)F)ccc5F)cc4)c23)CC1 [Example 65, 1-(2-fluoro-5-trifluoromethyl-phenyl)-3-(4-[methyl-(1-methyl-piperidin-4-ylamino]-1H-pyrazolo[3,4-d]pyrimidin-3-yl]-phenyl}-urea] | + (+ = PIC50 = 5.00 to less than 6.00)
5 | 2,3-Dichloro-N-{4-[1-methyl-6-(3-diethylamino -propylamino)-1H-pyrazolo[3,4-d]pyrimidin-3-yl]-phenyl}-benzenesulfonamide [Example 107] | −− (−− = PIC50 less than 5.00)

Same assay, conditions: read-out: TIE2 PIC50 TIE2-E2 assay

Row | IC50 [µM] | Compound
6 | ≤ 0.0398 | Cn1nc(-c2ccc(NC(=O)Nc3cc(C(F)(F)F)ccc3F)c(F)c2)c2cnc(NCCCN3CCOCC3)nc21 [Example 127]
7 | > 10 | CN(C)CCCNc1ncc2c(-c3ccc(NS(=O)(=O)c4cccc(Cl)c4Cl)cc3)nn(C)c2n1 [Example 106, 2,3-Dichloro-N-{4-[1-methyl-6-(3-dimethylamino-propylamino)-1H-pyrazolo[3,4-d]pyrimidin-3-yl]-phenyl}-benzenesulfonamide]
8 | ≤ 0.0398 | CN1CCCC1CCNc1ncc2c(-c3ccc(NC(=O)Nc4cc(C(F)(F)F)ccc4F)c(F)c3)nn(C)c2n1 (centres unmarked) [Example 130]
9 | 1 to 10 | Cc1cc(-c2nn(C)c3nc(NCCN4CCOCC4)ncc23)ccc1NC(=S)Nc1cccc(C(F)(F)F)c1 [Example 58, 1-{2-Methyl-4-[1-methyl-6-(2-morpholin-4-yl-ethylamino)-1H -pyrazolo[3,4-d]-pyrimidin-3-yl]-phenyl}-3-(3-trifluoromethyl-phenyl)-thiourea]
10 | ≤ 0.0398 | Cn1nc(-c2ccc(NC(=O)Nc3cc(C(F)(F)F)ccc3F)cc2)c2cnc(NCCCN3CCCC3)nc21 [Example 86]
11 | 0.1 to 1 | CC(=O)c1cccc(NC(=O)Nc2ccc(-c3nn(C)c4nc(NCCN5CCOCC5)ncc34)cc2F)c1 [Example 54, 1-(3-Acetyl-phenyl)-3-{2-fluoro-4-[1-methyl-6-(2-morpholin-4-yl-ethylamino)-1H-pyrazolo[3,4-d]pyrimidin-3-yl]-phenyl}-urea]
12 | 1 to 10 | Cn1nc(-c2ccc(NS(=O)(=O)c3cccc(Cl)c3Cl)cc2)c2cnc(NCCCCN)nc21 [Example 120, 2,3-Dichloro-N-{4-[1-methyl-6-(4-amino-butylamino)-1H-pyrazolo[3,4-d]pyrimidin-3-yl]-phenyl}-benzenesulfonamide]
13 | 0.0398 to 0.1 | Cn1nc(-c2ccc(NC(=O)Nc3cc(C(F)(F)F)ccc3F)cc2)c2cnc(NCCCN)nc21 [Example 94, 1-(2-Fluoro-5-trifluoromethyl-phenyl)-3-{4-[1-methyl-6-(3-amino-propylamino)-1H-pyrazolo[3,4-d]pyrimidin-3-yl]-phenyl} urea]
14 | 0.1 to 1 | CN1CCC(Nc2ncc3c(-c4ccc(NS(=O)(=O)c5cccc(Cl)c5Cl)cc4)nn(C)c3n2)CC1 [Example 68]
15 | 0.1 to 1 | Cn1nc(-c2ccc(NC(=O)Nc3cc(C(F)(F)F)ccc3F)cc2)c2cnc(NCc3cccnc3)nc21 [Example 144, 1-(2-Fluoro-5-trifluoromethyl-phenyl)-3-{4-[(1-methyl-6-(pyridin-3-ylmethyl)-amino)-1H-pyrazolo[3,4-d]pyrimidin-3-yl]-phenyl} urea]
16 | 1 to 10 | CC(=O)c1cccc(NC(=O)Nc2ccc(-c3nn(C)c4nc(NCCN5CCOCC5)ncc34)cc2)c1 [Example 40, 1-(3-Acetyl-phenyl)-3-{4-[1-methyl-6-(2-morpholin-4-yl-ethylamino)-1H-pyrazolo[3,4-d]pyrimidin-3-yl]-phenyl}-urea]
17 | > 10 | Cn1nc(-c2ccc(NS(=O)(=O)c3cccc(Cl)c3Cl)cc2)c2cnc(NCCCN3CCCC3)nc21 [Example 105, 2,3-Dichloro-N-{4-[1-methyl-6-(3-pyrrolidin-1-yl-propylamino)-1H-pyrazolo[3,4-d]pyrimidin-3-yl]-phenyl}-benzenesulfonamide]
18 | > 10 | CC1CCCCN1CCCNc1ncc2c(-c3ccc(NS(=O)(=O)c4cccc(Cl)c4Cl)cc3)nn(C)c2n1 (centres unmarked) [Example 104, 2,3-Dichloro-N-(4-{1-methyl-6-[3-(2-methyl-piperidin-1-yl)-propylamino]-1H-pyrazolo[3,4-d]pyrimidin-3-yl)-phenyl}-benzenesulfonamide]
19 | ≤ 0.0398 | Cn1nc(-c2ccc(NC(=O)Nc3cc(C(F)(F)F)ccc3F)cc2)c2cnc(NCCCCN)nc21 [Example 95, 1-(2-Fluoro-5-trifluoromethyl-phenyl)-3-{4-[1-methyl-6-(4-amino-butylamino)-1H-pyrazolo[3,4-d]pyrimidin-3-yl]-phenyl} urea]
20 | 0.1 to 1 | CCc1cccc(NC(=O)Nc2ccc(-c3nn(C)c4nc(NCCN5CCOCC5)ncc34)cc2C)c1 [Example 45, 1-(3-Ethyl-phenyl)-3-{2-methyl-4-[1-methyl-6-(2-morpholin-4-yl-ethylamino)-1H-pyrazolo[3,4-d]pyrimidin-3-yl]-phenyl}-urea]
21 | 0.1 to 1 | Cn1nc(-c2ccc(NC(=O)Nc3cc(C(F)(F)F)ccc3F)cc2)c2cnc(NCCc3ccccn3)nc21 [Example 142]
22 | 1 to 10 | Cn1nc(-c2ccc(NC(=O)Nc3cc(C(F)(F)F)ccc3F)cc2)c2cnc(NCCc3ccccc3)nc21 [Example 81, 1-(2-Fluoro-5-trifluoromethyl-phenyl)-3-{4-[(1-methyl-6-phenethylamino)-1H-pyrazolo[3,4-d]pyrimidin-3-yl]-phenyl} urea]
23 | 1 to 10 | Cn1nc(-c2ccc(NC(=O)Nc3cc(C(F)(F)F)ccc3F)cc2)c2cnc(NCc3ccccc3)nc21 [Example 62, 1-(2-fluoro-5-trifluoromethyl-phenyl)-3-{4-[1-methyl-6-(benzylamino)-1H-pyrazolo[3,4-d]pyrimidin-3-yl]-phenyl}-urea]
24 | ≤ 0.0398 | CN1CCN(CCCNc2ncc3c(-c4ccc(NC(=O)Nc5cc(C(F)(F)F)ccc5F)c(F)c4)nn(C)c3n2)CC1 [Example 131]
25 | 1 to 10 | Cn1nc(-c2ccc(NC(=O)Nc3cc(C(F)(F)F)ccc3F)cc2)c2cnc(NCCOC(=O)Nc3cc(C(F)(F)F)ccc3F)nc21 [Example 30, (Fluoro-trifluoromethyl-phenyl)-carbamic acid 2-(3-{4-[3-(fluoro-trifluoromethyl-phenyl)-ureido]-phenyl}-1-methyl-1H-pyrazolo[3,4-d]pyrimidin-6-ylamino)-ethyl ester]
26 | ≤ 0.0398 | CN(C)CCCNc1ncc2c(-c3ccc(NC(=O)Nc4cc(C(F)(F)F)ccc4F)cc3)nn(C)c2n1 [Example 87, 1-(2-Fluoro-5-trifluoromethyl-phenyl)-3-{4-[1-methyl-6-(3-dimethylamino-propylamino)-1H-pyrazolo[3,4-d]pyrimidin-3-yl]-phenyl} urea]
27 | > 10 | Cn1nc(-c2ccc(NS(=O)(=O)c3cccc(Cl)c3Cl)cc2)c2cnc(NCCCN3CCOCC3)nc21 [Example 103, 2,3-Dichloro-N-{4-[1-methyl-6-(3-morpholin-4-yl-propylamino)-1H-pyrazolo[3,4-d]pyrimidin-3-yl)-phenyl}-benzenesulfonamide]
28 | > 10 | CN1CCCC1CCNc1ncc2c(-c3ccc(NS(=O)(=O)c4cccc(Cl)c4Cl)cc3)nn(C)c2n1 (centres unmarked) [Example 108, 2,3-Dichloro-N-(4-{1-methyl-6-[2-(1-methyl-pyrrolidin-2-yl)-ethylamino]-1H-pyrazolo[3,4-d]pyrimidin-3-yl]-phenyl}-benzenesulfonamide]
29 | 0.0398 to 0.1 | Cn1nc(-c2ccc(NC(=O)Nc3cc(C(F)(F)F)ccc3F)cc2)c2cnc(NCCCCNC(=N)N)nc21 [Example 99, 1-(2-Fluoro-5-trifluoromethyl-phenyl)-3-{4-[1-methyl-6-(4-guanidino-butylamino)-1H-pyrazolo[3,4-d]pyrimidin-3-yl]-phenyl} urea]
